According to patent publication US9855280B2, “Nanoparticles containing azolium and N-heterocyclic carbene compounds and use thereof” (National Dong Hwa University, priority 2015, dated 2018):
Where two headings read alike, the source gives them in different places.

Experiments:
[1] = test system: Hs578T human breast cancer cell line; assay: Cell proliferation (MTT) cytotoxicity, Hs578T; format: cell-based; conditions: 72 h
Source text: (§1) Nine human cancerous cell lines, included human acute monocytic leukemia cell line (THP-1), human chronic myelogenous leukemia cell (K562), human acute lymphoblastic leukemia cell (CEM), human liver cancer cell line (HepG2), human colon cancer cell line (HT-29), human lung cancer cell line (H460), human breast cancer cell line (Hs578), human tongue squamous carcinoma (SAS), and human neuroblastoma cell line (SH—SY5Y) were purchased from the Bioresource Collection and Research Center (BCRC, Taiwan). A normal splenocyte is a primary cell acquired from the mouse spleen as a normal tissue cells to compare with nine cancer cell lines. They were cultured in either RPMI or DMEM (Gibco, CA, U.S.A) based media containing 2 mM L-glutamine, 1 mM sodium pyruvate, 50U/ml penicillin/50 μg/ml streptomycin (Gibco, CA, USA). and 10% fetal bovine serum ([…], HyClone Laboratories Inc., Logan, Utah, USA) at 37° C. with 5% CO2 supplied.
(§2) Cancer cells were seeded into 96-well plate at a starting density 8-10×10^3 cells/well. After overnight culture, [C16,TEGQ-Im]Cl, [C16,TEGQ-Imy)2Au]Cl, and AuNPs-B were added at various concentrations and duration times. Cisplantin of same concentration was added in the same plate as positive control (Sigma-Aldrich, St. Louis, Mo., USA). The proliferation of the cells was measured at 72 h by the MTT method. The cell viability was examined using Ethidium bromide/Acride orange vital stain to exclude the dead cells and normalized the number of living cells to the total counted cells. […] All experiments were performed in triplicate to calculate the experimental averages and standard deviations. […]

[2] = test system: HT-29 human colon cancer cell line; assay: Cell proliferation (MTT) cytotoxicity, HT-29; format: cell-based; conditions: HT-29, 72 h
Source text: as §1, §2

[3] = test system: SH-SY5Y human neuroblastoma cell line; assay: Cell proliferation (MTT) cytotoxicity, SH-SY5Y; format: cell-based; conditions: 72 h
Source text: as §1, §2

[4] = test system: splenocyte, primary cell acquired from the mouse spleen; assay: Cell proliferation (MTT) cytotoxicity, normal splenocyte; format: cell-based; conditions: 72 h
Source text: as §1, §2

[5] = test system: H460 human lung cancer cell line; assay: Cell proliferation (MTT) cytotoxicity, H460; format: cell-based
Source text: as §1, §2

[6] = test system: SAS human tongue squamous carcinoma; assay: Cell proliferation (MTT) cytotoxicity, SAS; format: cell-based; conditions: 72 h
Source text: as §1, §2

[7] = test system: HepG2 human liver cancer cell line; assay: Cell proliferation (MTT) cytotoxicity, HepG2; format: cell-based; conditions: HepG2, 72 h
Source text: as §1, §2

[8] = test system: K562 human chronic myelogenous leukemia cell; assay: Cell proliferation (MTT) cytotoxicity, K562; format: cell-based; conditions: K562, 72 h
Source text: as §1, §2

[9] = test system: THP-1 human acute monocytic leukemia cell line; assay: Cell proliferation (MTT) cytotoxicity, THP-1; format: cell-based; conditions: THP-1, 72 h
Source text: as §1
(§3) Cancer cells were seeded into 96-well plate at a starting density 8-10×10^3 cells/well. After overnight culture, [C16,TEGQ-Im]Cl, [C16,TEGQ-Imy)2Au]Cl, and AuNPs-B were added at various concentrations and duration times. […] The proliferation of the cells was measured at 72 h by the MTT method. The cell viability was examined using Ethidium bromide/Acride orange vital stain to exclude the dead cells and normalized the number of living cells to the total counted cells. […]

[10] = Solubility in water; format: physicochemical
[11] = test system: CEM human acute lymphoblastic leukemia cell; assay: Cell proliferation (MTT) cytotoxicity, CEM; format: cell-based; conditions: 72 h
Source text: as §1, §3

[12] = test system: nine cancer cell lines; assay: In vitro cytotoxicity across the panel of cancer cell lines; format: cell-based, human
Source text: as §1, §3

With `N.N.[Cl][Pt][Cl]` [Cisplatin, reference compound] the IC50 [1] was 1.73 µg/mL, the IC50 [2] was 2.45 µg/mL and the IC50 [3] was 0.60 µg/mL. The IC50 [4] was 0.71 ± 0.05 µg/mL, the IC50 ([5]; H460, 72 h) was 1.23 ± 0.29 µg/mL and the IC50 [6] was 2.21 µg/mL. It also gave an IC50 [7] of 1.67 ± 0.23 µg/mL and an IC50 [8] of 0.61 µg/mL.

In the case of `CCCCCCCCCCCCCCCCn1cc[n+](CCOCCOCCOc2cccc3cccnc23)[c]1[Au-][c]1n(CCOCCOCCOc2cccc3cccnc23)cc[n+]1CCCCCCCCCCCCCCCC.[Cl-]` [[(C16,TEGQ-Imy)2Au]Cl], the IC50 [1] is reported as 0.66 ± 0.14 µg/mL, the IC50 [9] is reported as 3.37 ± 0.74 µg/mL and the “Solubility in water” value [10] is reported as “relatively poor solubility in water”. It also gave an IC50 [2] of 29.41 ± 16.89 µg/mL, an IC50 [3] of 1.14 ± 0.31 µg/mL and an IC50 [4] of 4.06 ± 1.66 µg/mL. The IC50 [11] was 4.11 ± 0.78 µg/mL, the IC50 ([5]; H460, 72 h) was 6.64 ± 1.22 µg/mL and the IC50 [6] was 0.74 ± 0.03 µg/mL. The IC50 [7] was 7.47 ± 1.53 µg/mL, the “IC50, range over cell lines” value ([12]; all of the eight cancer cell lines) was 2.7 to 29.4 µg/mL and the IC50 [8] was 2.71 ± 0.26 µg/mL.

For `CCCCCCCCCCCCCCCCn1cc[n+](CCOCCOCCOc2cccc3cccnc23)c1.[Cl-]` [[C16,TEGQ-Im]Cl, 3-hexadecyl-1-(2-(2-(2-(quinolin-8-yloxy)ethoxy)ethoxy)ethyl)-imidazolium chloride], the IC50 ([1]; Homo sapiens, Hs-578T, read-out: IC50) was 0.39 ± 0.05 µg/mL, the IC50 ([9]; Homo sapiens, read-out: IC50) was 0.37 µg/mL and the IC50 ([2]; Homo sapiens, read-out: IC50) was 0.88 ± 0.11 µg/mL. It also gave an IC50 ([3]; Homo sapiens, read-out: IC50) of 0.34 µg/mL, an IC50 ([4]; read-out: IC50) of 3.18 ± 0.76 µg/mL and an IC50 ([11]; Homo sapiens, read-out: IC50) of 0.67 ± 0.16 µg/mL. For the same compound, the IC50 ([5]; Homo sapiens, NCI-H460, 72 h, read-out: IC50) was 1.43 ± 0.3 µg/mL, the IC50 ([6]; Homo sapiens, read-out: IC50) was 0.89 ± 0.56 µg/mL and the IC50 ([7]; Homo sapiens, read-out: IC50) was 1.69 ± 0.14 µg/mL. For the same compound, the IC50 ([12]; Homo sapiens, six cancer cell lines: THP-1, K562, HT-29, Hs578T, SH-SY5Y, SAS, read-out: IC50 values, range over cell lines) was 0.22 to 0.89 µg/mL and the IC50 ([8]; Homo sapiens, read-out: IC50) was 0.22 ± 0.03 µg/mL.
